# According to the supplement of paper PMC7017272:
# ± gives the standard deviation of the averaged measurements.
# Key:
# Settings in all cases: treatment time: 3 days
# UT-SCC-28 [1] = assay: relative IC50 (midpoint of the fitted curve; maximal inhibition may be below 50%); higher = less potent
# Procedure, shortened: (§1)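 Viability of HPV-negative HNSCC cell lines was measured by CellTiter-Glo 2.0 luminescence. Cells were seeded at 500 cells/well in 384-well plates on plastic, on Matrigel- or Myogel-coated wells (500 µg/mL), or embedded in Matrigel or Myogel plus rat collagen I, then given compounds at five 10-fold concentrations for 3 days, with signals normalised to vehicle (0.1% DMSO) and cell-killing control wells. Fitting of percent-inhibition dose–response curves in the FIMM pipeline yielded IC50, maximal inhibition and drug sensitivity score.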
# UT-SCC-81 [2] = assay: as above
# Procedure, shortened: as §1
# UT-SCC-24B [3] = assay: as above
# Procedure, shortened: as §1
# UT-SCC-40 [4] = assay: as above
# Procedure, shortened: as §1
# UT-SCC-28 [5] = assay: maximal % inhibition of viability relative to DMSO; higher = stronger effect
# Method: (§2)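 HNSCC cell lines (500 cells/well, 384-well) were cultured on plastic, on top of (2D) or embedded (3D) in Matrigel or human leiomyoma matrix Myogel (500 ug/mL; Myogel 3D mixed with rat collagen I). Cells were treated for 3 days with 5 ten-fold concentrations of each drug, and viability was read by CellTiter-Glo. Viability was normalised to DMSO and benzethonium chloride controls and fitted with the FIMM DSRT pipeline to give IC50 (nM), maximal % inhibition and DSS. Suffixes _1/_2/_3 are replicates. Only inhibition-mode (IC50) fits are kept.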
# UT-SCC-81 [6] = assay: as above
# Method: as §2
# UT-SCC-44 = assay: as above
# Method: as §2
# UT-SCC-42A = assay: as above
# Method: as §2
# UT-SCC-14 = assay: as above
# Method: as §2
# UT-SCC-24B [7] = assay: as above
# Method: as §2
# UT-SCC-42B = assay: as above
# Method: as §2
# UT-SCC-40 [8] = assay: as above
# Method: as §2
# UT-SCC-73 = assay: as above
# Method: as §2
# UT-SCC-8 = assay: as above
# Method: as §2
# UT-SCC-106A = assay: as above
# Method: as §2
# UT-SCC-24A = assay: drug sensitivity score (DSS); higher = more sensitive
# Method: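 HNSCC cell lines (500 cells/well, 384-well) were cultured on plastic, on top of (2D) or embedded (3D) in Matrigel or human leiomyoma matrix Myogel (500 ug/mL; Myogel 3D mixed with rat collagen I). Cells were treated for 3 days with 5 ten-fold concentrations of each drug, and viability was read by CellTiter-Glo. Suffixes _1/_2/_3 on drug names are replicates.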
# [9] = culture condition: embedded in Matrigel
# [10] = culture condition: embedded in Myogel + collagen I
# [11] = culture condition: on top of Matrigel
# [12] = culture condition: plastic 2D (no matrix)
# [13] = culture condition: on top of Myogel
smiles,measurement,setting,value
CN(C)C/C=C/C(=O)Nc1cc2c(Nc3ccc(F)c(Cl)c3)ncnc2cc1O[C@H]1CCOC1 [Afatinib],relative IC50,UT-SCC-28 [1]; [9],> 989 nM
same,relative IC50,UT-SCC-28 [1]; [10],> 989 nM
same,relative IC50,UT-SCC-81 [2]; [9],6.81 nM
same,relative IC50,UT-SCC-81 [2]; [11],15.3 nM
same,relative IC50,UT-SCC-81 [2]; [12],35.7 nM
same,relative IC50,UT-SCC-24B [3]; [9],31.2 nM
same,relative IC50,UT-SCC-24B [3]; [11],23 nM
same,relative IC50,UT-SCC-24B [3]; [12],12.7 nM
same,relative IC50,UT-SCC-40 [4]; [9],21.3 nM
same,relative IC50,UT-SCC-40 [4]; [11],24.2 nM
same,relative IC50,UT-SCC-40 [4]; [12],33.1 nM
same,maximal % inhibition of viability,UT-SCC-28 [5]; [9],3.87 ± 5.3%
same,maximal % inhibition of viability,UT-SCC-28 [5]; [10],14.7 ± 6.2%
same,maximal % inhibition of viability,UT-SCC-28 [5]; [11],12 ± 4%
same,maximal % inhibition of viability,UT-SCC-28 [5]; [12],8.87 ± 2.8%
same,maximal % inhibition of viability,UT-SCC-81 [6]; [9],88.3 ± 2.3%
same,maximal % inhibition of viability,UT-SCC-81 [6]; [10],33.4 ± 37%
same,maximal % inhibition of viability,UT-SCC-81 [6]; [11],83.3 ± 2.2%
same,maximal % inhibition of viability,UT-SCC-81 [6]; [13],23 ± 7.8%
same,maximal % inhibition of viability,UT-SCC-81 [6]; [12],71.2 ± 5%
same,maximal % inhibition of viability,UT-SCC-44; [9],7.03 ± 6.5%
same,maximal % inhibition of viability,UT-SCC-44; [10],1 ± 1.7%
same,maximal % inhibition of viability,UT-SCC-44; [11],9.97 ± 9.3%
same,maximal % inhibition of viability,UT-SCC-44; [13],9.63 ± 7.3%
same,maximal % inhibition of viability,UT-SCC-44; [12],4.6 ± 5.6%
same,maximal % inhibition of viability,UT-SCC-42A; [9],51.6 ± 4%
same,maximal % inhibition of viability,UT-SCC-42A; [10],13.4 ± 9.6%
same,maximal % inhibition of viability,UT-SCC-42A; [11],54 ± 2.1%
same,maximal % inhibition of viability,UT-SCC-42A; [13],26.6 ± 1.1%
same,maximal % inhibition of viability,UT-SCC-42A; [12],50.7 ± 2.2%
same,maximal % inhibition of viability,UT-SCC-14; [9],74.9 ± 5.2%
same,maximal % inhibition of viability,UT-SCC-14; [10],44.3 ± 12%
same,maximal % inhibition of viability,UT-SCC-14; [11],74.6 ± 7.7%
same,maximal % inhibition of viability,UT-SCC-14; [13],47.3 ± 16%
same,maximal % inhibition of viability,UT-SCC-14; [12],71.4 ± 10%
same,maximal % inhibition of viability,UT-SCC-24B [7]; [9],63.2 ± 3%
same,maximal % inhibition of viability,UT-SCC-24B [7]; [10],37.8 ± 14%
same,maximal % inhibition of viability,UT-SCC-24B [7]; [11],56.5 ± 1.6%
same,maximal % inhibition of viability,UT-SCC-24B [7]; [13],21.4 ± 3.8%
same,maximal % inhibition of viability,UT-SCC-24B [7]; [12],71.4 ± 3.5%
same,maximal % inhibition of viability,UT-SCC-42B; [9],73.7 ± 4.9%
same,maximal % inhibition of viability,UT-SCC-42B; [11],54.4 ± 3.4%
same,maximal % inhibition of viability,UT-SCC-42B; [13],9.53 ± 0.45%
same,maximal % inhibition of viability,UT-SCC-42B; [12],37.8 ± 4.5%
same,maximal % inhibition of viability,UT-SCC-40 [8]; [9],80.3 ± 2.6%
same,maximal % inhibition of viability,UT-SCC-40 [8]; [10],26.2 ± 14%
same,maximal % inhibition of viability,UT-SCC-40 [8]; [11],74.2 ± 2.8%
same,maximal % inhibition of viability,UT-SCC-40 [8]; [13],22.6 ± 4.6%
same,maximal % inhibition of viability,UT-SCC-40 [8]; [12],59.8 ± 7.3%
same,maximal % inhibition of viability,UT-SCC-73; [9],20.2 ± 7.8%
same,maximal % inhibition of viability,UT-SCC-73; [10],25.6 ± 22%
same,maximal % inhibition of viability,UT-SCC-73; [11],17.1 ± 3.4%
same,maximal % inhibition of viability,UT-SCC-73; [13],11.5 ± 7.3%
same,maximal % inhibition of viability,UT-SCC-73; [12],16.7 ± 4.8%
same,maximal % inhibition of viability,UT-SCC-8; [9],96.67 ± 0.42%
same,maximal % inhibition of viability,UT-SCC-8; [10],22.4 ± 19%
same,maximal % inhibition of viability,UT-SCC-8; [11],94.3 ± 0.36%
same,maximal % inhibition of viability,UT-SCC-8; [13],45.4 ± 12%
same,maximal % inhibition of viability,UT-SCC-8; [12],90.7 ± 1.6%
same,maximal % inhibition of viability,UT-SCC-106A; [9],43.3 ± 3.5%
same,maximal % inhibition of viability,UT-SCC-106A; [10],7.93 ± 2.1%
same,maximal % inhibition of viability,UT-SCC-106A; [11],56.6 ± 1.3%
same,maximal % inhibition of viability,UT-SCC-106A; [13],8.37 ± 4.6%
same,maximal % inhibition of viability,UT-SCC-106A; [12],60.4 ± 4.3%
same,drug sensitivity score,UT-SCC-24A; [9],20.6 ± 3.3 DSS
same,drug sensitivity score,UT-SCC-24A; [10],8.9 ± 5.3 DSS
same,drug sensitivity score,UT-SCC-24A; [11],16.6 ± 2.1 DSS
same,drug sensitivity score,UT-SCC-24A; [13],2.93 ± 2.1 DSS
same,drug sensitivity score,UT-SCC-24A; [12],15.6 ± 3.1 DSS
